# Assay results taken from US7250440B2, “(Hydroxyphenyl)-1H-indole-3-carbaldehyde oxime derivatives as estrogenic agents” (Wyeth, priority 2003, dated 2007).
# Target: T1, human ERα (Homo sapiens, UniProt P03372)
# T1 construct: made in house; host or cells: E. coli
# T1 sequence (P03372 311-547 limits assumed): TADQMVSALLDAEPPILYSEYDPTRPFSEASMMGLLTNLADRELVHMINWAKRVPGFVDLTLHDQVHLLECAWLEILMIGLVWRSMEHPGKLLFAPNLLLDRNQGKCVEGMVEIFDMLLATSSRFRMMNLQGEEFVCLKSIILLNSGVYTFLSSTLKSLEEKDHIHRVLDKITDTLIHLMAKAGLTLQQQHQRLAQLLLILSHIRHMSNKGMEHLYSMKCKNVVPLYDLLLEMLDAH
# Assay: Competition with [3H]-17β-estradiol for binding to the ERα ligand binding domain
# Details: crude E. coli lysate expressing human ERα ligand binding domain; 2 nM [3H]-17β-estradiol; 5-15 hours at room temperature
# Procedure: (§1) Representative examples of the invention were evaluated for their ability to compete with 17β-estradiol for both ERα and ERβ. This test procedure provides the methodology for one to determine whether a particular compound binds to the estrogen receptor (and is therefore “estrogenic”) and whether there is selectivity for ERα or ERβ. […] 17β-estradiol is included as a standard reference for comparison. The procedure used is briefly described below. A crude lysate of E. coli expressing the estrogen receptor ligand binding domains D, E, & F) of human ERα or ERβ was prepared. Both receptors and compounds were diluted in 1× Dulbecco's PBS (DPBS) supplemented with 1 mM EDTA. Using a high binding masked microtiter plate, 100 uL of receptor (1 uG/well) was combined with 2 nM [^3H]-17β-estradiol and various concentrations of compound. After between 5 and 15 hours at room temperature, the plates were washed with DPBS/1 mM EDTA and bound radioactivity determined by liquid scintillation counting.
row,SMILES,IC50
1,"Cc1c(/C=N/O)c2cc(F)ccc2n1-c1ccc(O)cc1 [Example 5, 5-Fluoro-1-(4-hydroxyphenyl)-2-methyl-1H-indole-3-carbaldehyde oxime]",91 nM
2,"Cc1c(/C=N/O)c2cc(Cl)ccc2n1-c1ccc(O)cc1 [Example 6, 5-Chloro-1-(4-hydroxyphenyl)-2-methyl-1H-indole-3-carbaldehyde oxime]",145 nM
3,"Cc1c(/C=N/O)c2cc(Br)ccc2n1-c1ccc(O)cc1 [Example 7, 5-Bromo-1-(4-hydroxyphenyl)-2-methyl-1H-indole-3-carbaldehyde oxime]",235 nM
4,"O/N=C1\CCCc2c1c1ccccc1n2-c1ccc(O)cc1 [Example 8, (4E)-9-(4-Hydroxyphenyl)-1,2,3,9-tetrahydro-4H-carbazol-4-one oxime]",153 nM

# Target: T2, human ERβ (Homo sapiens, UniProt Q92731)
# T2 construct: made in house; host or cells: E. coli
# Assay: Competition with [3H]-17β-estradiol for binding to the ERβ ligand binding domain
# Details: not given
# Procedure: as §1
# T2 sequence (Q92731 264-498 limits assumed): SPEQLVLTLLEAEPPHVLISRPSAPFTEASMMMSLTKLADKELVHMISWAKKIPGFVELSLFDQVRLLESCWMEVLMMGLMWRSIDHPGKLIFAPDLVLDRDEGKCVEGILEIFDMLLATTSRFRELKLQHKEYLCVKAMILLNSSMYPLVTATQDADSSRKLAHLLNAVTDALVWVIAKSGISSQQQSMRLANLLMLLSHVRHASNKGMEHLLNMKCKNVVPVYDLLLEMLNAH
row,SMILES,IC50
1,"Cc1c(/C=N/O)c2cc(F)ccc2n1-c1ccc(O)cc1 [Example 5, 5-Fluoro-1-(4-hydroxyphenyl)-2-methyl-1H-indole-3-carbaldehyde oxime]",6.2 nM
2,"Cc1c(/C=N/O)c2cc(Cl)ccc2n1-c1ccc(O)cc1 [Example 6, 5-Chloro-1-(4-hydroxyphenyl)-2-methyl-1H-indole-3-carbaldehyde oxime]",29 nM
3,"Cc1c(/C=N/O)c2cc(Br)ccc2n1-c1ccc(O)cc1 [Example 7, 5-Bromo-1-(4-hydroxyphenyl)-2-methyl-1H-indole-3-carbaldehyde oxime]",93.5 nM
4,"O/N=C1\CCCc2c1c1ccccc1n2-c1ccc(O)cc1 [Example 8, (4E)-9-(4-Hydroxyphenyl)-1,2,3,9-tetrahydro-4H-carbazol-4-one oxime]",10 nM

# Same assay, conditions: crude E. coli lysate expressing human ERβ ligand binding domain; 2 nM [3H]-17β-estradiol; 5-15 hours at room temperature; read-out: ERβ
row,IC50,SMILES
1,8 nM,"Cc1c(/C=N/O)c2ccccc2n1-c1ccc(O)c(F)c1 [Example 10, 1-(3-Fluoro-4-hydroxyphenyl)-2-methyl-1H-indole-3-carbaldehyde oxime]"

# System: not given
# Assay: not given
# Details: not given
row,SMILES,melting point
1,"Cc1c(/C=N/O)c2ccccc2n1-c1ccc(O)cc1 [Example 4, 1-(4-Hydroxyphenyl)-2-methyl-1H-indole-3-carbaldehyde oxime]",171 to 173 °C
2,"Cc1c(/C=N/O)c2cc(F)ccc2n1-c1ccc(O)cc1 [Example 5, 5-Fluoro-1-(4-hydroxyphenyl)-2-methyl-1H-indole-3-carbaldehyde oxime]",162 to 163 °C
3,"Cc1c(/C=N/O)c2cc(Cl)ccc2n1-c1ccc(O)cc1 [Example 6, 5-Chloro-1-(4-hydroxyphenyl)-2-methyl-1H-indole-3-carbaldehyde oxime]",212 to 213 °C
4,"Cc1c(/C=N/O)c2cc(Br)ccc2n1-c1ccc(O)cc1 [Example 7, 5-Bromo-1-(4-hydroxyphenyl)-2-methyl-1H-indole-3-carbaldehyde oxime]",209 to 211 °C
5,"O/N=C1\CCCc2c1c1ccccc1n2-c1ccc(O)cc1 [Example 8, (4E)-9-(4-Hydroxyphenyl)-1,2,3,9-tetrahydro-4H-carbazol-4-one oxime]",227 to 229 °C
6,"O/N=C/c1cn(-c2ccc(O)cc2)c2ccccc12 [Example 9, 1-(4-Hydroxyphenyl)-1H-indole-3-carbaldehyde oxime]",95 to 97 °C
7,"Cc1c(/C=N/O)c2ccccc2n1-c1ccc(O)c(F)c1 [Example 10, 1-(3-Fluoro-4-hydroxyphenyl)-2-methyl-1H-indole-3-carbaldehyde oxime]",182 to 184 °C
